Columns and labels:
[1] = target: T1, Histone-lysine N-methyltransferase EHMT2 (Homo sapiens, UniProt Q96KQ7); experiment: Inhibition of human recombinant G9a catalytic domain amino acid 913 to 1193 expressed in Escherichia coli BL21 (DE3) by mass spectrophotometric assay
T1 sequence (Q96KQ7 whole entry): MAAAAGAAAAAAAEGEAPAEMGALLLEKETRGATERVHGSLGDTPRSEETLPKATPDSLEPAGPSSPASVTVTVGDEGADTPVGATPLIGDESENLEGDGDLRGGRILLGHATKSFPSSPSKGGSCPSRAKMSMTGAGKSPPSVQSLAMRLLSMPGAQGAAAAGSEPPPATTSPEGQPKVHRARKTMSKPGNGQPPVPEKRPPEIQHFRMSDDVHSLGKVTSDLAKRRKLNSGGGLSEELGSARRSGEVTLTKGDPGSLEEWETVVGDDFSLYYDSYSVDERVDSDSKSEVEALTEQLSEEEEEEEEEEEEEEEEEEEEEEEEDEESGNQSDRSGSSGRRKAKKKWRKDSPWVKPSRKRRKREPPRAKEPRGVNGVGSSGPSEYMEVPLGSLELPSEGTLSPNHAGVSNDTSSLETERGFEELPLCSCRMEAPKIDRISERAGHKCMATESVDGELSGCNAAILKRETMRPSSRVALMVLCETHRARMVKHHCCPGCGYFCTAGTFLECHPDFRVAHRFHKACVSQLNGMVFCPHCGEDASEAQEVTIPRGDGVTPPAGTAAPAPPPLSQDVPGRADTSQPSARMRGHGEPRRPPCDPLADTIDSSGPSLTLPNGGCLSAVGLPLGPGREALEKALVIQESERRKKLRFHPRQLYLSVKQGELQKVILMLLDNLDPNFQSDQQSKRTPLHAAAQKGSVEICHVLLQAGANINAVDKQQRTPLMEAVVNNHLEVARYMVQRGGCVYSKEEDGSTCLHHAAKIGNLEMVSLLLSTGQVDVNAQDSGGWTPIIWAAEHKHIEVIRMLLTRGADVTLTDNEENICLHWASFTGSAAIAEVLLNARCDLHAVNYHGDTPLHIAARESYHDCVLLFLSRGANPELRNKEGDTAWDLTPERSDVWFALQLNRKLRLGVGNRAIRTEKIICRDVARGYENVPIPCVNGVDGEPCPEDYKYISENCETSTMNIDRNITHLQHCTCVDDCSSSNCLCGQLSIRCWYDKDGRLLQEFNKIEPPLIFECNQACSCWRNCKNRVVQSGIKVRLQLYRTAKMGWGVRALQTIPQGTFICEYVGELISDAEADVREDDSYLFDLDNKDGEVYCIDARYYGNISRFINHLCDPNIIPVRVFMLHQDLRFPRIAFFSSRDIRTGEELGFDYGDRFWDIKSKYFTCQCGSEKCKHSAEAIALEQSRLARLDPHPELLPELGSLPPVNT

[2] = target: T2, Histone-lysine N-methyltransferase EHMT1 (Homo sapiens, UniProt Q9H9B1); experiment: Binding affinity to human recombinant GLP catalytic domain amino acid 951 to 1235 expressed in Escherichia coli BL21 (DE3) by isothermal titration calorimetry assay
T2 sequence (Q9H9B1 whole entry): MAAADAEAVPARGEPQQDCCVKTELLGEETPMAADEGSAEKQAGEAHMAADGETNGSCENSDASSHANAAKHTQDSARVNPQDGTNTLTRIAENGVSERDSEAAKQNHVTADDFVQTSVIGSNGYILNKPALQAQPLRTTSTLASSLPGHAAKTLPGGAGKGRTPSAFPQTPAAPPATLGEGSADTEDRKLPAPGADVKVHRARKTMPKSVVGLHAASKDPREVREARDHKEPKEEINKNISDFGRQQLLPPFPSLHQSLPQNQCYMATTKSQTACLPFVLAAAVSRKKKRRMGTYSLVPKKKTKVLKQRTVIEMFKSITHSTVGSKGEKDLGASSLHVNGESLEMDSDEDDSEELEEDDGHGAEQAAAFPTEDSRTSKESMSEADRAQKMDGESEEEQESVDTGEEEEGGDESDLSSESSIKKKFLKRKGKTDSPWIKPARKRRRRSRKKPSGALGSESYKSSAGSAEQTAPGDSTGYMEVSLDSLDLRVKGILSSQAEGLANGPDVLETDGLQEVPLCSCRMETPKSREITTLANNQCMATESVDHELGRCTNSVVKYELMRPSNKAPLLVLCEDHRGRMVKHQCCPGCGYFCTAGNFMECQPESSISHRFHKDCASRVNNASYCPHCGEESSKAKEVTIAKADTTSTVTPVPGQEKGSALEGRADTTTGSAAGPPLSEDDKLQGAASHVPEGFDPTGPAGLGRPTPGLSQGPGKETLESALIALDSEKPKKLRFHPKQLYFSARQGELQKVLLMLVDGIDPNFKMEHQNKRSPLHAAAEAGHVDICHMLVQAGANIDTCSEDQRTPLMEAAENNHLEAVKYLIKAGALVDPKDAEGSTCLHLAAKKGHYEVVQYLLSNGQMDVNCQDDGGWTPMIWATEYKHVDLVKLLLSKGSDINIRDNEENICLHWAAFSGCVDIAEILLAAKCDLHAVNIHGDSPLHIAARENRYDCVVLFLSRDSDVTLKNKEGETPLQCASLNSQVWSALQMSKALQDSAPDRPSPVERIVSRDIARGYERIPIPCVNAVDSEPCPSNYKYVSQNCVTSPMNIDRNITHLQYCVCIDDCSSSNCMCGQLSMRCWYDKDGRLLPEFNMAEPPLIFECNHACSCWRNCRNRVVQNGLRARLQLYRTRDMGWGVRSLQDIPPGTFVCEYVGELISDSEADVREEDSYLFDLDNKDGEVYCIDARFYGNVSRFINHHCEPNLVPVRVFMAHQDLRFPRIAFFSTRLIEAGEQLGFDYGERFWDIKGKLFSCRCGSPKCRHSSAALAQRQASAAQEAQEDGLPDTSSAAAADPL

[3] = target: T1, Histone-lysine N-methyltransferase EHMT2; experiment: Binding affinity to human recombinant G9a catalytic domain amino acid 913 to 1193 expressed in Escherichia coli BL21 (DE3) by isothermal titration calorimetry assay
[4] = target: T3, Histone-lysine N-methyltransferase SUV39H1 (Homo sapiens, UniProt O43463); experiment: Inhibition of human SUV39H1
T3 sequence (O43463 whole entry): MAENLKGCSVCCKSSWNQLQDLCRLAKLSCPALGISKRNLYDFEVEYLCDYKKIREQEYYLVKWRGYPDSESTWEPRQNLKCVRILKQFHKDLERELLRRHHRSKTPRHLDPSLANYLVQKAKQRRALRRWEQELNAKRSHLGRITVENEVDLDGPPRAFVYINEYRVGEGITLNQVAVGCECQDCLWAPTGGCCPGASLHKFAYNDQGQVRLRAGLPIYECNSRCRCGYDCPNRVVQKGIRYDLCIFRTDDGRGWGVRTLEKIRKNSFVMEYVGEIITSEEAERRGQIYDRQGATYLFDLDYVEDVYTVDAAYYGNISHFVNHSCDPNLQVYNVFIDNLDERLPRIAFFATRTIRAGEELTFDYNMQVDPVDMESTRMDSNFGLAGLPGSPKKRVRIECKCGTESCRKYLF

[5] = target: Histone-lysine N-methyltransferase E(z) (Drosophila melanogaster, UniProt P42124); experiment: Inhibition of Drosophila melanogaster E(Z)
[6] = target: T4, Histone-lysine N-methyltransferase Set8 (Drosophila melanogaster, UniProt Q9VFK6); experiment: Inhibition of Drosophila melanogaster PRSET7
T4 sequence (Q9VFK6 whole entry): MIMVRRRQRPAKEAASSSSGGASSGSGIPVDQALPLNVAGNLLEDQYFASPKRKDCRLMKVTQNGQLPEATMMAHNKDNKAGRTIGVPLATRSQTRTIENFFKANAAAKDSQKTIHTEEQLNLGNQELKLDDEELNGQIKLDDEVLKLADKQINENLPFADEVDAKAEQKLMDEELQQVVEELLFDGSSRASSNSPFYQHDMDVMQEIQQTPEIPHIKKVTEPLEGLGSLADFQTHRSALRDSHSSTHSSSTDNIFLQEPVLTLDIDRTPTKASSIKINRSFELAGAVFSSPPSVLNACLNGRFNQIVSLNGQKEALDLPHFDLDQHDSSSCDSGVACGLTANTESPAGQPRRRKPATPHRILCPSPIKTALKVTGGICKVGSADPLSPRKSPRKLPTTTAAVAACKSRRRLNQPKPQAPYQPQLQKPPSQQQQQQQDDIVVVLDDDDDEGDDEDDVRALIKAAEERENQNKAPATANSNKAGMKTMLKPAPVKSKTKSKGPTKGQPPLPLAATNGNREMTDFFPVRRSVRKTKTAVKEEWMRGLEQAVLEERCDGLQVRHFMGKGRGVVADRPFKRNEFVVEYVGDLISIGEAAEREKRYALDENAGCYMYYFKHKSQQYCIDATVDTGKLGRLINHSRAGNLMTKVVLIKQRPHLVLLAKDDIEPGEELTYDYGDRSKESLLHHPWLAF

[7] = Inhibition of Drosophila melanogaster SET7/9
[8] = target: T1, Histone-lysine N-methyltransferase EHMT2
Description: Inhibition of GST-tagged G9a after 1 hr by radioactive filter-binding assay

[9] = Inhibition of Neurospora crassa dim5

Sequence of Histone-lysine N-methyltransferase E(z) (P42124 whole entry): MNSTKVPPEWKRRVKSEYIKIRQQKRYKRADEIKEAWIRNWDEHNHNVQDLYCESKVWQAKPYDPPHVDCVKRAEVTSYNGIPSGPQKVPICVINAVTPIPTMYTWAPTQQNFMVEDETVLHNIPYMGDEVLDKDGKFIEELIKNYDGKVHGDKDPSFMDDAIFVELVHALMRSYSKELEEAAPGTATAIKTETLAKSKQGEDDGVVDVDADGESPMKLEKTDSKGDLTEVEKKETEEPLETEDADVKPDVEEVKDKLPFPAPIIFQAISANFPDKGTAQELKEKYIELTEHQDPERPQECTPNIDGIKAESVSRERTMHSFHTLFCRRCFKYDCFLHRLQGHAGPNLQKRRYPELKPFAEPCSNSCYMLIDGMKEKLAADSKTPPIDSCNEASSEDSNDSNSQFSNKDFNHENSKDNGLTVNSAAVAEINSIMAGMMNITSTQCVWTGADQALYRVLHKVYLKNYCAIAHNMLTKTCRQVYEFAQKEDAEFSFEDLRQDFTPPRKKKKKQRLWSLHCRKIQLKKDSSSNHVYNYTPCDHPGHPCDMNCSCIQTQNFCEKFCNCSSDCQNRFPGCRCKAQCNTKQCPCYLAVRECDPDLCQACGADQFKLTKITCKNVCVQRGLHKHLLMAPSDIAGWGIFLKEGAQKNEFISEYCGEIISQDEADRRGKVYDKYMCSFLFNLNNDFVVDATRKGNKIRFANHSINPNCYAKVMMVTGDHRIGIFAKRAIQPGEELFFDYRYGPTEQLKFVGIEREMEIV

IC50 [1] [µM] | Kd [2] [µM] | Kd [3] [µM] | Compound | IC50 [4] [µM] | IC50 [5] [µM] | IC50 [6] [µM] | IC50 [7] [µM] | IC50 [8] [µM] | IC50 [9] [µM]
1.3 | 0.136 | 0.164 | COc1cc2c(NC3CCN(CCCCCN)CC3)nc(NCCCN(C)C)nc2cc1OCCCCCN | – | – | – | – | – | –
– | – | – | CN1C(=O)[C@@]23C[C@]4([C@]56C[C@@]78SS[C@@](CO)(C(=O)N7[C@H]5Nc5ccccc56)N(C)C8=O)c5ccccc5N[C@@H]4N2C(=O)[C@]1(CO)SS3 [CHAETOCIN] | 0.8 | > 90 | > 90 | > 90 | 2.4 | 3

Reference: ChEMBL document CHEMBL2169811, “Oncoepigenomics: making histone lysine methylation count” (Eur J Med Chem, 2012)
